Tests used:
Type in all cases: cell-based
CEM cells = experiment: CellTiter 96 cell proliferation assay, 48 h exposure; conditions: Homo sapiens, CCRF-CEM, 48 h, read-out: Chemosensitivity, 50% of the dose response curve (EC50), CEM + NBMPR (100 nM), 48 h exposure, mean ± SD
Experimental: The chemosensitivity of suspension cells lines (e.g., CEM or CEM-derivatives) is assessed using the CellTiter 96 ? proliferation assay. […] Chemosensitivity is expressed as 50% (ECso) of the dose response curve determined, e.g., using GraphPad Prism 2.01 (GraphPad Software, San Diego, Calif.). Adherent cell lines (e.g., DU145 or DU145^R) are seeded (˜10^5 cells) in triplicate dishes, 24 h before drug exposure. Growth inhibition is determined by trypsinization and counting cells electronically.

hCNT3 = molecular target: T1, hCNT3 (Homo sapiens, UniProt Q9HAS3); experiment: Inhibition of [3H]uridine uptake by cib-activity in differentiated HL-60 cells; conditions: 100-fold non-radioactive excess
T1 construct: Troxacitabine uptake by cib-activity (hCNT3) in differentiated HL-60 cells; endogenous in cells; host or cells: differentiated HL-60 cells
T1 sequence (Q9HAS3 1-691): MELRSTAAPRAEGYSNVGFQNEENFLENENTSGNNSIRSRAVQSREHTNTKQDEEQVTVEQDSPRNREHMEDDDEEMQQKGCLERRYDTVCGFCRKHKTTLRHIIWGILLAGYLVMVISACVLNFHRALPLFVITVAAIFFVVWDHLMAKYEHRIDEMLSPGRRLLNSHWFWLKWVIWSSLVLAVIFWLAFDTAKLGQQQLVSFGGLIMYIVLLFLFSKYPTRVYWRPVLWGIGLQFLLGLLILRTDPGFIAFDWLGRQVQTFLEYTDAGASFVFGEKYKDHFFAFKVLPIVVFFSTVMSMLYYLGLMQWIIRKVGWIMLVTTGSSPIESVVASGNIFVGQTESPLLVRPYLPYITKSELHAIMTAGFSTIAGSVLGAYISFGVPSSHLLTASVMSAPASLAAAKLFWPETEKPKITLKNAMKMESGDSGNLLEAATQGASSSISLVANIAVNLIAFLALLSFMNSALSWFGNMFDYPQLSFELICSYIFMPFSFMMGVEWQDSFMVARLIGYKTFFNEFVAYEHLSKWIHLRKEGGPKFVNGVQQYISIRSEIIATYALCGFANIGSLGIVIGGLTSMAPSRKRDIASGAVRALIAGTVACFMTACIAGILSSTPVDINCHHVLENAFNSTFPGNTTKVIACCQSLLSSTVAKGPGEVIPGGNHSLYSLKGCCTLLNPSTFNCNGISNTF

recombinant hCNT2 = molecular target: T2, recombinant hCNT2 (Homo sapiens, UniProt O43868); experiment: Uptake by recombinant transporter in transiently transfected HeLa cells; conditions: 10 μM, 100 μM dilazep
T2 construct: expressed in transfected cells; host or cells: HeLa cells, transient transfection with pcDNA3-hCNT2 (subcloned from pMH15)
T2 sequence (O43868 1-658): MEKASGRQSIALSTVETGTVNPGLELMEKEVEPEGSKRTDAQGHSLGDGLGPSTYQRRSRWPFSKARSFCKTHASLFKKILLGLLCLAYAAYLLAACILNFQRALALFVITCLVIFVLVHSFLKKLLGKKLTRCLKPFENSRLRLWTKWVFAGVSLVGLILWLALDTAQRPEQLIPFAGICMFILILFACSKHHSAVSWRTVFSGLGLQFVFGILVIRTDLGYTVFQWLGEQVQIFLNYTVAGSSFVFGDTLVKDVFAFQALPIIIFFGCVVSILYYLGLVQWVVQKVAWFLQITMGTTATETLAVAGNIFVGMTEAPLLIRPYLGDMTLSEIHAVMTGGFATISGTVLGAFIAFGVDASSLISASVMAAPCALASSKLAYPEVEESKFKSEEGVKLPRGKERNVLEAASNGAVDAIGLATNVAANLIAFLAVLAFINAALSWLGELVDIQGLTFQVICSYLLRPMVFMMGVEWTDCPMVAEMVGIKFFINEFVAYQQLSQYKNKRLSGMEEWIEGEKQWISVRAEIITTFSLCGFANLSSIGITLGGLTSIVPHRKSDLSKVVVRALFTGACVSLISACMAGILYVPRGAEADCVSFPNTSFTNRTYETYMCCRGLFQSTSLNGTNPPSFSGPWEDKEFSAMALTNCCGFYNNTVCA
Experimental: (§1) Transport assays were conducted in the presence of the equilibrative transport inhibitor, 100 μM dilazep and either in the presence ( ? ) or absence (▴) of […].sodium, and compared to HeLa cells transiently transfected with the empty vector control plasmic (▾)
(§2) Expression plasmids encoding recombinant hCNT1 and hCNT2 are prepared using conventional methods. […] The expression vectors are separately introduced into actively proliferating HeLa cells, following conventional methods. See, e.g., Fang et al (1996).
(§3) Recombinant hCNT1 and hCNT2 were separately introduced into HeLa cells by transient transfection of pcDNA3 plasmids containing the coding sequences of the relevant nucleoside transporter protein. […] Uptake of 10 μM [:H]troxacitabine was not mediated either by hCNT1 or by hCNT2.

recombinant hCNT1 = molecular target: T3, recombinant hCNT1 (Homo sapiens, UniProt O00337); experiment: as above; conditions: 10 μM, 100 μM dilazep
T3 construct: expressed in transfected cells; host or cells: HeLa cells, transient transfection with pcDNA3-hCNT1 (subcloned from pMHK2)
T3 sequence (O00337 1-649): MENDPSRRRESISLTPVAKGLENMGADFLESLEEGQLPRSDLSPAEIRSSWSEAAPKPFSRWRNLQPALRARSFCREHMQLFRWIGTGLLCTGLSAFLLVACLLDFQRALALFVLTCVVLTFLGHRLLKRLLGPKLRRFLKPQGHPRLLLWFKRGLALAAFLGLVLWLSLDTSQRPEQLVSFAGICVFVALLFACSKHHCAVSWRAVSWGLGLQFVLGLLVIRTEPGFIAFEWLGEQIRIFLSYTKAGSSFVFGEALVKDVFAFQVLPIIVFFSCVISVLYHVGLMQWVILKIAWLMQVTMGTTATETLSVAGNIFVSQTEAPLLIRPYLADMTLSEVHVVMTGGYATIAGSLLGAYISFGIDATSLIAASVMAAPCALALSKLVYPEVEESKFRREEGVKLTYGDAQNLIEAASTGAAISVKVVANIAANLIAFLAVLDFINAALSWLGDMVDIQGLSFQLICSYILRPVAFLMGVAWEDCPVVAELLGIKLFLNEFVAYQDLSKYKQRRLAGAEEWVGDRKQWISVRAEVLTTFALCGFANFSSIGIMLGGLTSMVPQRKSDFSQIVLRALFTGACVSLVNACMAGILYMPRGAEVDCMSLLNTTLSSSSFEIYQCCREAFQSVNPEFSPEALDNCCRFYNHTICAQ
Experimental: as §1, §2, §3

## Nc1ccn([C@@H]2CO[C@H](CO)O2)c(=O)n1 [Troxacitabine, troxacitabine]
CEM cells
  EC50: 210 ± 19 nM
hCNT3
  effect on [3H]uridine uptake by hCNT3: no effect on uridine uptake
Recombinant hCNT2
  uptake mediated by hCNT2: not mediated
Recombinant hCNT1
  uptake mediated by hCNT1: not mediated
